Where two headings read alike, the source gives them in different places.
Assays:
[1] = tested on: amphetamine-induced hyperactivity; test: Amphetamine-induced hyperactivity in c57bl6/j mice; type: in vivo; conditions: 3 and 10 mg/kg i.p., amphetamine 3 mg/kg s.c.
Experimental: To the extent that ethanol-induced hyperactivity is mediated, at least partially, by the dopaminergic system, additional experiments were designed to evaluate whether the compound of formula (A) attenuates the hyperactivity induced by amphetamine, an indirect dopamine agonist.
Locomotor activity was measured with a Hamilton Kinder motor monitor infrared beam apparatus equipped with a SmartFrame cage rack throughout which basic movements were recorded. These experiments were conducted using a between subject design. Sessions started when 8-10-week old c57bl6/j mice were located in the test cages and they lasted for 180 min. Amphetamine (3 mg/kg, s.c.) was administered 60 min after the beginning of the session. The compound of formula (A) (1,3,10 mg/kg, i.p.) or vehicle was administered 15 min prior to amphetamine and locomotor activity was measured for an additional 120 min. The average of basic movements recorded for 60 min after amphetamine was calculated for each animal. Data were analyzed with one-way analysis of variance (ANOVA) using Graph Pad.

[2] = Pharmacokinetic study in dogs; type: in vivo, male Beagle dog; conditions: dog; for Vd: iv, 1 mg/kg
Experimental: Male Beagle Canines 11-15 kilograms in body weight were used. Three animals received a bolus oral dose of the compound via an oral gavage at a dose of 5 mg/kg. Three animals received a bolus intravenous dose of the compound at a dose of 1 mg/kg in the right cephalic vein. Blood sampling of the cephalic or jugular veins followed dosing over a time course. Blood samples consisted of 4-5 mL samples taken from the vein into heparinized blood collection tubes containing Li Heparin. These blood samples were then centrifuged. The plasma was retained and kept frozen in a −40° C. freezer until processed for analysis. The time course for sampling was as follows: 0.25, 0.5, 1, 2, 4, 8, and 24 hours for oral administration and 0.08, 0.25, 0.5, 1, 2, 4, 8, and 24 hours for intravenous administration. These samples were analyzed by LC-MS/MS. The LC-MS/MS data was analyzed using a non-compartmental model with the software package WinNonlin Version 4.0.1 (Pharsight, Palo Alto, Calif.). All figures plasma level versus time figures were created using GraphPad Prism 4 (San Diego, Calif.).
The compound of formula (A) was formulated in 20% hydroxypropyl-β-cyclodextrine. Oral and intravenous pharmacokinetic parameters for the compound of formula (A) were determined in male Beagles with results as shown in FIG. 3 and Table 3 below.

[3] = molecular target: T1, Y2 receptor binding sites in rat hippocampus (Rattus norvegicus, UniProt Q9ERC0); test: Ex vivo Y2 receptor occupancy in rats (autoradiography)
T1 construct: from tissue; host or cells: rat brain sections (hippocampus) after in vivo dosing
T1 sequence (Q9ERC0 1-381): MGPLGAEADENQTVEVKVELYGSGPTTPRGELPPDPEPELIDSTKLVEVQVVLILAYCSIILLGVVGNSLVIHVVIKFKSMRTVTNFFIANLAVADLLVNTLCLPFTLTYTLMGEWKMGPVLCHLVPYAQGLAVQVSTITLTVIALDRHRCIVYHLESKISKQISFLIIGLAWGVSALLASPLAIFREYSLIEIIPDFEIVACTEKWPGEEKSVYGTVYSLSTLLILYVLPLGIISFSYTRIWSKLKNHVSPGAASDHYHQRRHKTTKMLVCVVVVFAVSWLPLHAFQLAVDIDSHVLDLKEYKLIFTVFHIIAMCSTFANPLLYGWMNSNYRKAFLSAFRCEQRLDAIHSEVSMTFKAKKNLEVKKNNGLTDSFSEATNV
Experimental: The pharmacokinetic, blood-brain barrier penetration and ex vivo receptor occupancy studies were performed as described in Bonaventure, P., D. Nepomuceno, C. Mazur, B. Lord, D. A. Rudolph, J. A. Jablonowski, N. I. Carruthers and T. W. Lovenberg, J Pharmacol Exp Ther. 2004, 308, 1130.
The compound of formula (A) was formulated in 20% hydroxypropylbetacyclodextrine. Subcutaneous (SC), oral (PO) or intravenous (IV) dosing was followed by blood sampling via cardiac puncture over a time course. Blood samples consisted of 250 μl samples taken from the heart using a 23-gauge needle into 1.5 ml micro-centrifuge tubes. Brains were removed from the animals and bisected down the midsagittal plane. One hemisphere was frozen on dry ice for ex vivo receptor binding autoradiography and the other was homogenized for LC/MS-MS analysis.
Ex vivo receptor binding autoradiography was performed on brain sections. Twenty-micron-thick coronal sections at the level of the […] regions were collected and incubated for 10 min with 100 pM [^125I]PYY in Krebs-Ringer phosphate buffer (KRP) at pH 7.4 supplemented with 0.1% BSA, 0.05% bacitracin, and 1 μM BIBP-3226 for Y1 receptor occlusion. The sections were not washed prior to incubation and were incubated 10 minutes to avoid dissociation. Nonspecific binding was determined using adjacent sections incubated in the presence of 1 μM unlabelled hNPY. At the end of the incubation, sections were washed 4 times (4 minutes each) in ice cold buffer, dipped in deionized water and rapidly dried under a stream of cold air. Sections were exposed to a Fujifilm Imaging Plate (BAS-MS2025) for 12 hours. The Phosphor Imaging Plate was scanned using a Fuji Bio-Imaging Analyzer System (BAS-5000). The digitized computer images generated by the scanner were visualized and quantified using ImageGauge V3.12 software (Fujifilm).

[4] = tested on: panel of 50 receptors, ion channels and transporters; test: CEREP panel of 50 receptors, ion channels and transporters; type: binding; conditions: concentrations up to 1 μM
Experimental: The selectivity of the compound of formula (A) was further evaluated in a large variety of ion-channels, transporters and receptor-binding assays including the Y1 receptor subtype. These assays were performed by CEREP (Celles L'Evescault, France; www.cere.com<http//www.cerea.com>). Selectivity vs the Y5 receptor subtype was evaluated as described in Bonaventure, P., D. Nepomuceno, C. Mazur, B. Lord, D. A. Rudolph, J. A. Jablonowski, N. I. Carruthers and T. W. Lovenberg, J Pharmacol Exp Ther. 2004, 308, 1130.
The compound of formula (A) was assayed by binding in a panel of 50 receptors, ion channels and transporters assays (CEREP) including adenosine (A1,A2A,A3), adrenergic (α1, α2, β1), angiotensin (AT1), dopamine (D1, D2), bradykinin (B2), cholecystokinin (CCKA), galanin (GAL2), melatonin ML1), muscarinic (M1, M2, M3), neurotensin (NTS), neurokinin (NK2, NK3), NPY (Y1, Y2) opiate (m, k, d), serotonin (5-HT1A, 5-HT1B, 5-HT2A, 5-HT3, 5-HT5A, 5-HT6, 5-HT7), somatostatin, vasopressin (V1a), norepinephrine transporter, dopamine transporter and ion channels (sodium, calcium, potassium and chloride).

[5] = male, beagle, plasma, IV 1 mg/kg
[6] = male, beagle, plasma, PO 5 mg/kg

CCN(CC)C(=O)C(c1ccccc1)N1CCN(c2ccc(NC(=O)c3ccccc3-c3cccnc3)cc2F)CC1 (racemic) [Cmpd (A), N-{4-[4-(Diethylcarbamoyl-phenyl-methyl)-piperazin-1-yl]-3-fluoro-phenyl}-2-pyridin-3-yl-benzamide]
effect on amphetamine-induced hyperactivity [1]: blocked amphetamine-induced hyperactivity
Lambda z ([2]; IV 1 mg/kg): 1.47 h⁻¹
Lambda z ([2]; PO 5 mg/kg): 0.71 h⁻¹
Vd ([2]; male, beagle, plasma, IV 1 mg/kg, read-out: VSS): 0.57 L/kg
Vd ([2]; male, beagle, plasma, IV 1 mg/kg, read-out: Vz): 0.64 L/kg
AUC(0-inf) [2, 5]: 1.89 µM·h
AUC(0-t) [2, 5]: 0.89 µM·h
C0 [2, 5]: 6.24 µM
MRT inf [2, 5]: 36.6 min
clearance [2, 5]: 15.8 mL/min/kg
half-life [2, 5]: 28.2 min
AUC(0-inf) [2, 6]: 2.79 µM·h
AUC(0-t) [2, 6]: 2.73 µM·h
Cmax [2, 6]: 1.55 µM
MRT inf [2, 6]: 103 min
Tmax [2, 6]: 49.8 min
half-life [2, 6]: 59.4 min
time of maximal receptor binding site occupancy ([3]; rat hippocampus, SC 10 mg/kg): ~1 h
ED50 ([3]; rat hippocampus, SC, t=60 min): 2 mg/kg
receptor occupancy at 10 mg/kg ([3]; rat, 10 mg/kg SC, read-out: maximal ex vivo receptor occupancy): ~100%
inhibition against each receptor of the panel (except NPY Y2) [4]: less than 50%
